Measured values as given in ChEMBL document CHEMBL4665806, “Structure-based optimisation of orally active & reversible MetAP-2 inhibitors maintaining a tight 'molecular budget'” (Bioorg Med Chem Lett, 2020).
Converted amounts (≈) assume the structure as drawn. The source made the active and inactive calls. The rule behind the calls is not given here.

Experiments:
[1] = Intrinsic clearance in rat; type: ADME
[2] = Intrinsic clearance in human; type: ADME
[3] = Chromatographic hydrophobicity index, log D of the compound at pH 7.4; type: physicochemical; conditions: buffer
Mus musculus [4] = assay: Antiinflammatory activity in anti-KLH treated mouse model of B-cell adaptive immunity assessed as inhibition of secondary response at […] mg/kg, po administered twice daily from day 21 to day 31 relative to control; type: functional, organism-based; conditions: dose 3.0 mg/kg, time 10.0 day
Mus musculus [5] = assay: Antiinflammatory activity in antigen KLH-TNP- treated mouse model of B-cell adaptive immunity assessed as inhibition of secondary response at 3 mg/kg, po administered twice daily from day 21 to day 31 relative to control; type: functional; set-up: scale not given: the % may be the effect or the level left; conditions: time 10 day
Mus musculus [6] = assay: Antiinflammatory activity in antigen KLH-TNP- treated mouse model of B-cell adaptive immunity assessed as inhibition of secondary response at 10 mg/kg, po administered twice daily from day 21 to day 31 relative to control; type: functional; set-up: scale not given: the % may be the effect or the level left; conditions: time 10 day
Mus musculus [7] = assay: Antiinflammatory activity in antigen KLH-TNP- treated mouse model of B-cell adaptive immunity assessed as inhibition of secondary response at 30 mg/kg, po administered twice daily from day 21 to day 31 relative to control; type: functional; set-up: scale not given: the % may be the effect or the level left; conditions: dose 3 mg/kg; time 10 day
Mus musculus [8] = assay: Antiinflammatory activity in antigen KLH-TNP- treated po dosed mouse model of B-cell adaptive immunity assessed as inhibition of secondary response administered twice daily from day 21 to day 31; type: functional, organism-based; conditions: dose mg/kg 3-30, time 10.0 day
[9] = Oral bioavailability in mouse at 10 mg/kg; type: ADME, organism-based; conditions: in vivo
[10] = Volume of distribution at steady state in po dosed mouse; type: ADME, organism-based; conditions: in vivo
[11] = Half life in po dosed mouse; type: ADME, organism-based; conditions: in vivo
[12] = Clearance in po dosed mouse; type: ADME, organism-based; conditions: in vivo
[13] = Solubility of the compound; type: physicochemical
[14] = target: Methionine aminopeptidase 2 (Mus musculus, UniProt O08663); assay: Inhibition of MetAP2 in mouse B cells assessed as reduction in IgG secretion; type: cell-based, B-cell
Methionine aminopeptidase 2, sequence (O08663 whole entry): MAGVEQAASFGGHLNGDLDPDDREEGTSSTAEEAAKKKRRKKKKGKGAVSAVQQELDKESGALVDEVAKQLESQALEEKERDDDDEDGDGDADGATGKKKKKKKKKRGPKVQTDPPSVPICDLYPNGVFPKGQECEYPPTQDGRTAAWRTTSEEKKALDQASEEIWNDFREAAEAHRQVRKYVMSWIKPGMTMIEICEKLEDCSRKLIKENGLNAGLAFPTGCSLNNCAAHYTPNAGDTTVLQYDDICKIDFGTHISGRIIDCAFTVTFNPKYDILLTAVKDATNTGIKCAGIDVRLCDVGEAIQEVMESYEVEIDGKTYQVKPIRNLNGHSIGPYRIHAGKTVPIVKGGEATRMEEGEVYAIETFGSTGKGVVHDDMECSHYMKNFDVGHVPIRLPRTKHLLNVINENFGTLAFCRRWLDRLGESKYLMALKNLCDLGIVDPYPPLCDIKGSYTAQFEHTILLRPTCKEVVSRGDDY

CLint scaled [1]	CLint scaled [2]	chromatographic logD [3]	bioavailability [9]	Vdss [10]	half-life [11]	CL/F [12]	solubility [13]	IC50 [14]	Compound	Activity (Mus musculus [4])	Activity (Mus musculus [5])	Activity (Mus musculus [6])	Activity (Mus musculus [7])	Activity (Mus musculus [8])
< 1 mL/min/kg	< 1 mL/min/kg	3.1							CC(C)Oc1cc(N2CCNCC2)ccc1-c1c(C(N)=O)[nH]c2cc(F)c(Cl)cc12					
< 1 mL/min/kg	< 1 mL/min/kg	2.8	89%	7.7 L/kg	4.5 h	45 mL/min/kg	629 µg/mL (≈ 1520 µM)	39.8 nM	CC(C)Oc1cc(N2CCNCC2)ccc1-c1c(C(N)=O)[nH]c2cc(F)c(F)cc12	Active	15%	39%	89%	Dose-dependent effect
